Read-outs that look alike come from different tables or passages of the source.
Legend:
[1] = Plasma pharmacokinetics after single and multiple oral administration of A. paniculata aqueous extract capsules in healthy participants (HPLC-MS/MS, non-compartmental analysis); format: in vivo, human; conditions: for CL/F / AUC(0-t) / MRT / Vd/F / half-life / Tmax / AUC(0-inf) / Cmax: human; for CL/F / AUC(0-t) / MRT / Vd/F / half-life / Tmax / AUC(0-inf): plasma; for MRT: read-out: MRT; for Vd/F: read-out: Vd/F; for Tmax: read-out: Tmax; for AUC(0-inf): read-out: AUC(0-inf); for Cmax: read-out: Cmax
Protocol: (§1) An opened-label, two-dosage, single- and multiple-oral dosing, single center, phase I safety and pharmacokinetic study was conducted in healthy participants while they were under a fasting condition. […] Two weeks prior to the beginning of the clinical study, the volunteers were advised to abstain from other dietary supplements, herbal products, or any concomitant medicines. During the period of the study, no other medications were allowed. All participants fasted overnight for at least 8 h before drug administration. The study conducted a single-dose investigation on day 1 by oral administering A. paniculata extract capsules once in both groups. Twelve participants in group 1 received 3 capsules orally (equivalent to 60 mg of andrographolide) with 240 mL of water, while another twelve participants in group 2 received 6 capsules (equivalent to 120 mg of andrographolide). This was followed by serial blood sampling for up to 24 h after dosing. For blood collection, 6 mL of venous blood in EDTA tube was collected via a forearm vein catheter at each time point including pre-dose (0 h), and post-dose after oral administration (T 0.167, 0.333, 0.5, 0.75, 1, 1.5, 2, 4, 6, 8, 10, 12 and 24 h). Subsequently, observation of elimination continued until 48 h post-dose to ensure complete excretion of the major active diterpenoids through urine. Urine samples were collected at day 0 (the day prior to dosing) and day 1–2 (T 0–4, 4–8, 8–12,12–24, 24–32, 32–40, and 40–48 h after dosing). The study then proceeded to investigate multiple doses in both groups by administering continuous oral doses from day 3 until the morning of day 5. (dosing at T48, 56, 64, 72, 80, 88, and 96 h). In group 1, three capsules were administered orally before meals, three times a day (3 × 3 capsules at 8-h intervals, calculated as 180 mg/day of andrographolide); whereas in group 2, six capsules were administered daily, three times a day (6 × 3 capsules at 8-h intervals, calculated as 360 mg/day of andrographolide). For serial blood sampling of multiple doses, 6 mL of blood samples were collected starting in the morning of day 5 (sampling timepoints T 96, 96.167, 96.333, 96.5, 96.75, 97, 97.5, 98, 100, 102, and 104 h post dose).
(§2) All collected blood samples were centrifuged at 4,000 rpm, 4^οC, for 5 min. Plasma was collected and stored in cryotubes at −70^οC until analysis. Urine was kept as 10 mL aliquot samples at each time point and stored at −70^οC until analysis. Extraction was performed by protein precipitation method as previously reported ([Songvut et al., 2023]). Briefly, 50 µL of either a plasma or urine sample was mixed with 200 µL of methanol containing an internal standard (IS) of digoxin (50 ng/mL). Pretreated samples were vortexed for 10 min and were then centrifuged at 12,000 rpm, 4°C, for 10 min. The supernatants were filtered through a 0.2 µm PVDF membrane and were subsequently transferred to vials for HPLC-MS/MS analysis.
(§3) Hydrolysis of the glucuronidated and sulfated conjugates was conducted by enzymatic incubation as our previous published method ([Songvut et al., 2023]). To analyze the metabolic conjugations, 50 μL of either a plasma or urine sample was pre-incubated at 37^οC with 50 µL of either of β-glucuronidase in sodium phosphate buffer (pH 6.8) for 30 min, or sulfatase in sodium acetate buffer (pH 5) for 2 h. IS (50 ng/mL) was then added along with 150 μL of methanol to precipitate protein. The extracted samples were then vortexed and centrifuged at 12,000 rpm, 4^οC, for 10 min. The supernatants were collected by filtering through a 0.2-µm PVDF membrane before HPLC-MS/MS injection.
(§4) Analysis for the concentrations of targeted compounds in plasma and urine samples were carried out using HPLC-MS/MS at the Laboratory of Pharmacology, Chulabhorn Research Institute, Bangkok, Thailand. The quantitative determination was performed according to a previously validated method ([Songvut et al., 2023]). […]

[2] = Cumulative urinary excretion after single oral administration of A. paniculata aqueous extract capsules in healthy participants; format: in vivo, human; conditions: for Cumulative urine: urine T 0–48 h
Protocol: as §1, §2, §3, §4

[3] = design: method as in Panossian et al., 2000; conditions: previous pharmacokinetic studies; ref Panossian et al., 2000; cited from earlier work
[4] = multiple oral doses 60 mg × 3 times/day of andrographolide, n = 12, mean ± SD
[5] = multiple oral doses 60 mg × 3 times/day of andrographolide, n = 12, mean ± SD, read-out: AUC(0–8h)
[6] = multiple oral doses 60 mg × 3 times/day of andrographolide, n = 12, median [IQR]
[7] = multiple oral doses 120 mg × 3 times/day of andrographolide, n = 11, mean ± SD
[8] = multiple oral doses 120 mg × 3 times/day of andrographolide, n = 11, mean ± SD, read-out: AUC(0–8h)
[9] = multiple oral doses 120 mg × 3 times/day of andrographolide, n = 11, median [IQR]
[10] = single oral dose equivalent to 60 mg andrographolide, n = 12, mean ± SD
[11] = single oral dose equivalent to 60 mg andrographolide, n = 12, mean ± SD, read-out: AUC(0–24h)
[12] = single oral dose equivalent to 60 mg andrographolide, n = 12, median [IQR]
[13] = single oral dose equivalent to 120 mg andrographolide, n = 11, mean ± SD
[14] = single oral dose equivalent to 120 mg andrographolide, n = 11, mean ± SD, read-out: AUC(0–24h)
[15] = single oral dose equivalent to 120 mg andrographolide, n = 11, median [IQR]
[16] = multiple oral doses 60 mg × 3 times/day of andrographolide, plasma T 0–8 h, n = 12, mean ± SD
[17] = multiple oral doses 120 mg × 3 times/day of andrographolide, plasma T 0–8 h, n = 11, mean ± SD
[18] = single oral dose equivalent to 60 mg andrographolide, plasma T 0–24 h, n = 12, mean ± SD
[19] = single oral dose equivalent to 120 mg andrographolide, plasma T 0–24 h, n = 11, mean ± SD

| CL/F [1, 4] | AUC(0-t) [1, 5] | MRT [1, 4] | Vd/F [1, 4] | half-life [1, 6] | Tmax [1, 6] | CL/F [1, 7] | AUC(0-t) [1, 8] | MRT [1, 7] | Vd/F [1, 7] | half-life [1, 9] | Tmax [1, 9] | CL/F [1, 10] | AUC(0-inf) [1, 10] | AUC(0-t) [1, 11] | MRT [1, 10] | Vd/F [1, 10] | half-life [1, 12] | Tmax [1, 12] | CL/F [1, 13] | SMILES | other results |
| --- | --- | --- | --- | --- | --- | --- | --- | --- | --- | --- | --- | --- | --- | --- | --- | --- | --- | --- | --- | --- | --- |
| 75 mL/min/kg | 195 ± 24 ng·h/mL | 4.3 ± 0.99 h | 18 ± 8 L/kg | 2.3 h | 0.65 h | 91.7 mL/min/kg | 345 ± 48.8 ng·h/mL | 3.4 ± 0.45 h | 14.7 ± 3.7 L/kg | 1.7 h | 0.8 h | 81.7 mL/min/kg | 210 ± 25.4 ng·h/mL | 210 ± 25.4 ng·h/mL | 6 ± 0.45 h | 9 ± 1.66 L/kg | 1.3 h | 0.8 h | 100 mL/min/kg | C=C1CC[C@@H]2[C@](C)(CO)[C@H](O)CC[C@@]2(C)[C@@H]1C/C=C1/C(=O)OC[C@H]1O [Andrographolide, andrographolide] | AUC(0-inf) [1, 13]: 345 ± 63.5 ng·h/mL; AUC(0-t) [1, 14]: 345 ± 63.5 ng·h/mL; MRT [1, 13]: 5.3 ± 0.63 h; Vd/F [1, 13]: 10.8 ± 1.6 L/kg; half-life [1, 15]: 1.2 h; Tmax [1, 15]: 0.8 h; Cmax [1, 16]: 85.9 ± 19 ng/mL; Cmax [1, 17]: 172 ± 54.4 ng/mL; Cmax [1, 18]: 72.1 ± 28.7 ng/mL; Cmax [1, 19]: 112 ± 33.4 ng/mL; Amount excreted in urine on doubling the oral dose ([2]; 60 vs 120 mg of andrographolide): nearly corresponding doubling; Cumulative urine [2, 10]: 372 ± 159 µg; Cumulative urine [2, 13]: 1,193±553 μg; Tmax [3]: 1.36 h |
| 65 mL/min/kg | 69.7 ± 12.9 ng·h/mL | 1.7 ± 0.22 h | 3.4 ± 0.78 L/kg | 0.6 h | 1 h | 71.7 mL/min/kg | 128 ± 29.1 ng·h/mL | 1.9 ± 0.18 h | 1.2 ± 0.29 L/kg | 0.19 h | 1 h | 36.7 mL/min/kg | 41 ± 4.9 ng·h/mL | 41 ± 4.9 ng·h/mL | 1.8 ± 0.33 h | 0.74 ± 0.16 L/kg | 0.23 h | 0.9 h | 88.3 mL/min/kg | C=C1CC[C@@H]2[C@](C)(CO[C@@H]3O[C@H](CO)[C@@H](O)[C@H](O)[C@H]3O)CCC[C@@]2(C)[C@@H]1CCC1=CCOC1=O [Neoandrographolide, neoandrographolide] | Detectability as conjugated metabolites in plasma ([1]; glucuronide and sulfate derivatives): less detectable; AUC(0-inf) [1, 4]: 69.7 ± 12.9 ng·h/mL; AUC(0-inf) [1, 7]: 128 ± 29.1 ng·h/mL; AUC(0-inf) [1, 13]: 104 ± 22.6 ng·h/mL; AUC(0-t) [1, 14]: 104 ± 22.6 ng·h/mL; MRT [1, 13]: 2.2 ± 0.22 h; Vd/F [1, 13]: 1.5 ± 0.33 L/kg; half-life [1, 15]: 0.19 h; Tmax [1, 15]: 0.8 h; Cmax [1, 16]: 34.8 ± 6.3 ng/mL; Cmax [1, 17]: 60.7 ± 12.2 ng/mL; Cmax [1, 18]: 24.4 ± 5.6 ng/mL; Cmax [1, 19]: 50.4 ± 19.2 ng/mL; Cumulative urine [2, 10]: 24.0 ± 18.1 µg; Cumulative urine [2, 13]: 66.7 ± 29.3 µg |

From article PMC10469688, “Comparative pharmacokinetics and safety evaluation of high dosage regimens of Andrographis paniculata aqueous extract after single and multiple oral administration in healthy participants” (Frontiers in Pharmacology, 2023)
